# Assay results as given in patent US20150291658A1, “NOVEL CHONDRAMIDE DERIVATIVES” (HELMOLTZ-ZENTRUM FÜR INFEKTIONSFORSCHUNG, priority 2012, published 2015).
# Entries after “also recorded” stand apart in the source; their conditions may differ. Like-named read-outs stand apart in the source and are kept apart here.
# Legend:
# [1] = test system: RAW246.7: murine leukemic monocyte macrophages; experiment: Growth inhibition experiments (GI50), RAW246.7; format: cell-based; conditions: group A derivatives, small panel of cancer cell lines
# [2] = test system: KB-3.1: human cervical carcinoma; experiment: Growth inhibition experiments (GI50), KB-3.1; format: cell-based; conditions: for GI50 KB-3.1: group A derivatives, small panel of cancer cell lines, KB-3.1 human cervical carcinoma; for GI50 values KB-3.1: Table 1
# [3] = test system: HCT-116 colon carcinoma cell line; experiment: Growth inhibition experiments (MTT, 5 d), HCT-116; format: cell-based, human
# Method: (§1) Cells were seeded at 6×10^3 cells per well of 96-well plates (Corning CellBind®) in 180 μl complete medium and directly treated with chondramides dissolved in methanol in a serial dilution. Each compound was tested in duplicate for 5 d, as well as the internal methanol control. After 5 d incubation, 20 μl of 5 mg/ml MTT (Mosmann, T. (1983). Rapid Colorimetric Assay for Cellular Growth and Survival: Application to Proliferation and Cytotoxicity Assays. J. Immunol. Meth. 65, 55-63) in PBS was added per well and it was further incubated for 2 h at 37° C. The medium was then discarded and cells were washed with 100 μl PBS before adding 100 μl 2-propanol/10 N HCl (250:1) in order to dissolve formazan granules. The absorbance at 570 nm was measured using a microplate reader (EL808, Bio-Tek Instruments Inc.), and cell viability was expressed as percentage relative to the respective methanol control. GI50 values were obtained by sigmoidal curve fitting. Testing of fractions was performed likewise using 1.2×10^4 cells per well. Samples were dissolved in cell culture medium and cells were treated for 2 d before adding MTT. Viability was expressed relative to the untreated control.
# [4] = test system: human U-2 OS osteosarcoma cell line; experiment: Growth inhibition experiments (MTT, 5 d), U-2 OS; format: cell-based
# Method: as §1
# [5] = test system: multidrug resistant (MDR) KB-V.1 cell line; experiment: Growth inhibition experiments (MTT, 5 d), KB-V.1; format: cell-based; conditions: Table 1
# Method: Cancer Inst. 90, 1559-1563). […] The same applies for most novel derivatives, solely a hydroxyl group at C2′ of the polyketide segment instead of methoxy or simply hydrogen leads to an approximately 10-fold reduced potency. GI50 values of glycosylated derivatives were not determinable precisely in the assay's concentration range.
# as §1
# L-929 = experiment: Growth inhibition experiments (GI50), L-929; format: cell-based; conditions: Table 1
# [6] = test system: HUVEC, human umbilical vein endothelial cells (primary cells); experiment: Growth inhibition experiments (MTT, 5 d), HUVEC; format: cell-based; conditions: Table 1
# Source text: (§2) With primary cells (HUVEC, human umbilical vein endothelial cells) and the fibroblast cell line MRC5 this is not the case. Whereas chondramides A˜C are comparably active on both, cancer and non-cancerous cells, brominated chondramide C3 analogs are on average by factor 2-4 less toxic for non-cancerous cells. Accordingly they show a higher selectivity.
# (§3) Cell lines were obtained from the American Type Culture Collection (ATCC) and the German Collection of Microorganisms and Cell Cultures (Deutsche Sammlung für Mikroorganismen and Zellkulturen, DSMZ), and HUVEC (single donor) were purchased from PromoCell. Cells were cultured under the conditions recommended by the respective depositor in a standard humidified incubator at 37° C. with 5% CO2.
# as §1
# [7] = test system: fibroblast cell line MRC5; experiment: Growth inhibition experiments (MTT, 5 d), MRC5; format: cell-based, human; conditions: Table 1
# Method: as §2, §1
# [8] = test system: panel of cell lines derived from various origins and tissues (cancer cell lines, non-cancerous cell lines, primary cells); experiment: Growth inhibition experiments (MTT, 5 d), panel of cell lines; format: cell-based; conditions: for growth inhibitory activity in cell lines (in words, compared to chondramides A~C / other derivatives): GI50-based comparison, panel of cell lines
# Method: First, the compounds were tested on a small panel of cell lines derived from various origins and tissues. GI50 values were compared to those determined using chondramides A˜C (see Table 1).
# as §3, §1
# These compounds were profiled regarding their growth inhibitory potential in a panel of cancer cell lines. Natural chondramide A was used as reference:
# Biological evaluation of group A derivatives. GI50 values [nM] were determined in a small panel of cancer cell lines.
# [9] = target: T1, pyrene-labeled rabbit muscle actin (Oryctolagus cuniculus, UniProt P68135); experiment: Actin polymerization assay (pyrene actin fluorescence); format: biochemical; conditions: 20 μM derivative, 5 μM pyrene actin, non-polymerizing buffer, followed over 85 min
# T1 construct: pyrene-labeled rabbit muscle actin; purchased Cytoskeleton, Inc; host or cells: rabbit muscle (tissue-derived; inferred from the name)
# Method: A final concentration of 20 μM for each derivative was chosen and polymerization was followed over 85 min.
# Fluorescence-based actin polymerization assays were performed using pyrene muscle actin (Cytoskeleton, Inc.) according to the supplier's protocol. Chondramides were dissolved in non-polymerizing buffer (5 mM Tris-HCl pH 8.0, 0.2 mM CaCl2, 0.2 mM ATP, 1 mM DTT) and mixed with pyrene actin diluted in the same buffer to give a final concentration of 20 μM chondramide and 5 μM actin. Samples were prepared in black, low-volume 384-well plates (Corning, NBS™ surface). The fluorescence at 405 nm (excitation at 360 nm) was scanned every 30 s for 85 min at 37° C. on a microplate reader (Spectramax M5^e, Molecular Devices). Experiments were performed in duplicates and the average relative fluorescence of polymerizing pyrene actin is given. Slopes were calculated in the linear range of kinetic measurements.
# [10] = group A derivatives, small panel of cancer cell lines, HCT-116 human colon carcinoma, read-out: GI50 HCT-116
# [11] = group A derivatives, small panel of cancer cell lines, U-2 OS human osteosarcoma, read-out: GI50 U-2 OS
# [12] = Table 1, HCT-116, read-out: GI50 values HCT-116
# [13] = Table 1, U-2 OS, read-out: GI50 values U-2 OS
SMILES,GI50 [1],GI50 KB-3.1 [2],"GI50 [3, 10]","GI50 [4, 11]",GI50 values KB-V.1 [5],GI50 values KB-3.1 [2],GI50 (L-929),"GI50 [3, 12]","GI50 [4, 13]",GI50 [6],GI50 [7],"growth inhibitory activity in cell lines (in words, compared to chondramides A~C / other derivatives) [8]","GI50 values on human cancer cell lines ([8]; human cancer cell lines, cell-based studies)",actin-polymerizing effect (G-actin polymerization in vitro) [9],GI50 values L-929 (L-929)
CCC1C/C=C(\C)CCC(=O)NC(C)C(=O)N(C)C(Cc2c(Cl)[nH]c3ccccc23)C(=O)NC(c2ccc(O)c(Cl)c2)CC(=O)O1 (centres unmarked) [CA8],0.0008 µM,0.0011 µM,0.0002 µM,0.0006 µM,,,,,,,,,,,
"CO[C@@H]1C(=O)O[C@H](C)[C@@H](C)C=C(C)C[C@H](C)C(=O)N[C@@H](C)C(=O)N(C)[C@H](Cc2c(Cl)[nH]c3ccccc23)C(=O)NC1c1ccc(O)cc1 (some centres unmarked) [Chondramide B, reference compound]",,,,,0.0564 ± 0.0091 µM,0.0407 ± 0.0094 µM,0.0808 ± 0.0136 µM,0.0301 ± 0.0095 µM,0.0208 ± 0.0019 µM,0.0307 ± 0.0029 µM,0.0209 ± 0.0032 µM,,,,
C/C1=C\CCOC(=O)CC(c2ccc(O)c(Cl)c2)NC(=O)C(C(C)C)N(C)C(=O)C(C)NC(=O)CC1 (centres unmarked) [CA9],> 0.18 µM,>0.18 µM,0.18 µM,> 0.18 µM,,,,,,,,,,,
CCC1C/C=C(\C)CCC(=O)NC(C)C(=O)N(C)C(C(C)C)C(=O)NC(c2ccc(O)c(Cl)c2)CC(=O)O1 (centres unmarked) [CA4],0.0298 µM,0.0582 µM,0.0255 µM,> 0.18 µM,,,,,,,,,,,
"CO[C@@H]1C(=O)O[C@H](C)[C@H](C)/C=C(\C)C[C@H](C)C(=O)N[C@@H](C)C(=O)N(C)[C@H](Cc2c[nH]c3ccccc23)C(=O)N[C@H]1c1ccc(O)cc1 [Chondramide A, reference compound]",0.0473 µM,0.0716 µM,0.0917 µM,0.0685 µM,0.038 ± 0.0105 µM,0.0505 ± 0.0154 µM,0.0909 ± 0.0118 µM,0.0489 ± 0.0146 µM,0.0271 ± 0.0041 µM,0.0437 ± 0.007 µM,0.0638 ± 0.013 µM,,,,
"CCC1C/C=C(\C)CC(C)C(=O)NC(C)C(=O)N(C)C(C(C)C)C(=O)NC(c2ccc(O)c(Cl)c2)CC(=O)O1 (single isomer, unassigned) [CA6-Fr2]",0.105 µM,0.0745 µM,0.101 µM,0.0654 µM,,,,,,,,,,,
"C/C1=C\[C@@H](C)[C@@H](C)OC(=O)C[C@H](c2ccc(O)cc2)NC(=O)[C@@H](Cc2c[nH]c3ccccc23)N(C)C(=O)[C@H](C)NC(=O)[C@@H](C)C1 [Chondramide C, reference compound]",,,,,0.0858 ± 0.0149 µM,0.0368 ± 0.0068 µM,0.0873 ± 0.0149 µM,0.0337 ± 0.0032 µM,0.0256 ± 0.0012 µM,0.034 ± 0.0037 µM,0.0261 ± 0.0047 µM,,,,
CCC1OC(=O)CC(c2ccc(O)c(Br)c2)NC(=O)C(Cc2c[nH]c3ccccc23)N(C)C(=O)C(C)NC(=O)C(C)CC(C)=CC1C (centres unmarked) [Propionyl-Bromo-Chondramide C3],,,,,0.0319 ± 0.002 µM,0.038 ± 0.0065 µM,0.023 ± 0.0021 µM,0.0172 ± 0.0016 µM,0.009 ± 0.0006 µM,0.0502 ± 0.0056 µM,0.13 ± 0.0037 µM,the most active in cell-based studies,low nanomolar range,,
C/C1=C\CCOC(=O)CC(c2ccc(O)c(Br)c2)NC(=O)C(Cc2c[nH]c3ccccc23)N(C)C(=O)C(C)NC(=O)CC1 (centres unmarked) [CA3],0.0062 µM,0.0064 µM,0.0021 µM,0.0018 µM,,,,,,,,,,,
"CCC1C/C=C(\C)CC(C)C(=O)NC(C)C(=O)N(C)C(Cc2c(Cl)[nH]c3ccccc23)C(=O)NC(c2ccc(O)c(Cl)c2)CC(=O)O1 (single isomer, unassigned) [CA7-Fr1]",0.0747 µM,0.0979 µM,0.0163 µM,0.0535 µM,,,,,,,,,,,
CC1=CC(C)C(C)OC(=O)C(O)C(c2ccc(O)c(Cl)c2)NC(=O)C(Cc2c(Cl)[nH]c3ccccc23)N(C)C(=O)C(C)NC(=O)C(C)C1 (centres unmarked) [Chondramide E4],,,,,0.2515 ± 0.0791 µM,0.6272 ± 0.1225 µM,0.555 ± 0.0816 µM,0.379 ± 0.0302 µM,0.352 ± 0.0306 µM,0.207 ± 0.0264 µM,0.48 ± 0.0636 µM,,,decreased ability to polymerize actin,
"CCC1C/C=C(\C)CC(C)C(=O)NC(C)C(=O)N(C)C(C(C)C)C(=O)NC(c2ccc(O)c(Cl)c2)CC(=O)O1 (single isomer, unassigned) [CA6-Fr1]",0.0411 µM,0.0714 µM,0.0794 µM,0.0596 µM,,,,,,,,,,,
COC1C(=O)OC(C)C(C)C=C(C)CC(C)C(=O)NC(C)C(=O)N(C)C(Cc2c[nH]c3ccccc23)C(=O)NC1c1ccc(OC2OC(C(=O)O)C(O)C(O)C2O)c(Cl)c1 (centres unmarked) [Chondramide A9],,,,,w.a.,,,,,,,significantly reduced,,does not show any actin-polymerizing effect,w.a.
"CCC1C/C=C(\C)CC(C)C(=O)NC(C)C(=O)N(C)C(Cc2c(Cl)[nH]c3ccccc23)C(=O)NC(c2ccc(O)c(Cl)c2)CC(=O)O1 (single isomer, unassigned) [CA7-Fr2]",0.0018 µM,0.0019 µM,0.0008 µM,0.0013 µM,,,,,,,,,,,
CC1=CC(C)C(C)OC(=O)CC(c2ccc(O)c(Br)c2)NC(=O)C(Cc2c[nH]c3ccccc23)N(C)C(=O)C(C)NC(=O)C(C)C1 (centres unmarked) [Bromo-Chondramide C3],,,,,0.0238 ± 0.0021 µM,0.0468 ± 0.0065 µM,0.014 ± 0.0014 µM,0.0177 ± 0.0013 µM,0.0048 ± 0.0017 µM,0.0444 ± 0.007 µM,0.0577 ± 0.0035 µM,,,,
C/C1=C\CCOC(=O)CC(c2ccc(O)c(Cl)c2)NC(=O)C(Cc2c(Cl)[nH]c3ccccc23)N(C)C(=O)C(C)NC(=O)CC1 (centres unmarked) [CA2],0.18 µM,0.3759 µM,0.0305 µM,0.0667 µM,,,,,,,,,,,
CCC1C/C=C(\C)CCC(=O)NC(C)C(=O)N(C)C(C(C)C)C(=O)NC(c2ccc(O)c(Cl)c2)CC(=O)O1 (centres unmarked) [CA5],0.0562 µM,0.0687 µM,0.0773 µM,0.153 µM,,,,,,,,,,,
COC1C(=O)OC(C)C(C)C=C(C)CC(C)C(=O)NC(C)C(=O)N(C)C(Cc2c(Cl)[nH]c3ccccc23)C(=O)NC1c1ccc(O)c(Cl)c1 (centres unmarked) [Chondramide A4],,,,,0.0831 ± 0.0016 µM,0.0568 ± 0.007 µM,0.0676 ± 0.0098 µM,0.0444 ± 0.0016 µM,0.0264 ± 0.0022 µM,0.0525 ± 0.0074 µM,0.0127 ± 0.0014 µM,,,similarly potent; also recorded: increases the polymerization rate even more drastically,
